Assay results as given in patent publication US20110230447A1, “OSTEOGENESIS PROMOTER COMPRISING [4-(METHYLTHIO)PHENYLTHIO]METHANEBISPHOSPHONIC ACID OR PHARMACEUTICALLY ACCEPTABLE SALT THEREOF AS ACTIVE INGREDIENT” (Tohoku University, priority 2008, published 2011).
Entries after “also recorded” stand apart in the source; their conditions may differ.

Legend:
MC3T3-E1 cells [1] = assay: Alkaline phosphatase (ALP) activity in osteoblast-like MC3T3-E1 cells; format: cell-based, mouse
Procedure: FIG. 4 is an effect of MPMBP (1, 10, and 100 μM) on the osteoblast lineage cell lines MC3T3-E1 cells.
FIG. 5 is an effect of bisphosphonate ([…] bisphosphonate, namely pamidronate, incadronate, and zoledronate. Respectively, 0.1, 1, and 10 μM) on the osteoblast-like cell line MC3T3-E1 cells.
Using the mouse skull-derived osteoblast-like cell line MC3T3-E1 cells (RIKEN Bio Resource Center, CELL BANK: RCB 1126), with respect to the alkaline phosphatase (ALP) activity, known as one index of osteogenesis, and also known as the index of differentiation of osteoblast precursor cells to osteoblasts, what kind of effects MPMBP has was studied. After MC3T3-E1 cells were cultured in a α-MEM (10% bovine serum supplementation) and after the confluent was reached, under the presence or absence of MPMBP (1, 10, and 100 μM), for 6, 10, or 20 days, they were cultured in the culture plate of 48 wells. After completion of culturing, a cell homogenate was prepared, and using the method by Lowry et al (J Biochem 1954; 207: 19-37), the ALP activity (per well) was measured.

[2] = test system: calvariae (bone organ culture system of a mouse); assay: Bone organ culture system of mouse calvariae, staining and confocal laser scanning microscopy; format: cell-based; conditions: for production of the type I collagen / bone matrix: zoledronate 2.5 μM compared with MPMBP, presence or absence of LPS (FIG. 8); for bone resorption resulting from LPS, size of the resorption cavity: Nomarski images; for production of collagen (type I collagen fibers): MPMBP 100 μM, alendronate 2.0 μM, no heparin, vs control bone (FIG. 9)
Procedure: Using the bone organ culture system, what kind of effects MPMBP has on production of the bone matrix was studied. From 3-6 day old mice, calvariae were collected aseptically. These were cultured using the Stern and Krieger method (Calcif Tissue hit 1983; 35: 172-17) with DMEM (10% bovine serum supplementation, no supplementation of heparin, supplementation or no supplementation of LPS 10 μg/ml) for 48 hours. After completion of culturing, with the method described by Suzuki, Takeyama et al (J Histochem Cytochem 2005; 53: 1525-1537), a double staining of the type I collagen and alkaline phosphatase (FIG. 6 and FIG. 8), a double staining of the type I collagen and alizarin red (FIG. 7), and an immunohistochemical staining using the type I collagen (FIG. 9) were performed, and using a confocal laser scanning microscope, they were observed.
The upper panels are Nomarski differential interference contrast images of the bone surface. The middle panels are images of the bone surface after the double staining of the type I collagen and alkaline phosphatase was performed, and the lower panels are images of the bone section after the double staining of the type I collagen and alkaline phosphatase was performed, respectively. Using rhodamine for the type I collagen, red color could be observed, and using a substrate (ELF-97) that fluoresces when dephosphorylated for alkaline phosphatase (stain osteoblasts), the enzyme activity could be observed in green color.
The upper panels are Nomarski differential interference contrast images of the bone surface. […] The lower panels are images of the bone section after the double staining of the type I collagen and alizarin red was performed, and the collagen fibers could be observed in green color resulting from Alexa Fluor-488 and the bone mineral could be observed in red color resulting from alizarin red.
After the immunological double staining of the type I collagen and alkaline phosphatase was performed, as was the case with FIG. 6, using Alexa Fluor 594 for the type I collagen, it was stained in red color, and using the substrate (ELF-97) that fluoresces when dephosphorylated for alkaline phosphatase (osteoblasts), the enzyme activity was stained in green color. The upper panels are observation images of the bone surface and the lower panels are images of the bone section.

MC3T3-E1 cells [3] = assay: Expression of osteogenesis-related genes in MC3T3-E1 cells by real-time RT-PCR; format: cell-based, mouse
From the text: As an experiment to clarify the mechanism of the osteogenesis promoting action of MPMBP, using the osteoblast-based cell line MC3T3-E1 cells, the effect on expression of osteogenesis-related genes was studied using the real-time RT-PCR method. Moreover, the effect was compared with the action of zoledronate.
In the experiment, the osteoblast-based cell line MC3T3-E1 cells that reached the confluent after cultured with α-MEM (10% bovine serum supplementation) were used. For 3 days, they were cultured (used a dish with the diameter of 60 mm) under the presence of MPMBP (1, 10, or 100 μM) or zoledronate (0.1, 0.5 or 2.00 μM). After completion of culturing, cells were scraped and using Trizol, RNA was extracted. From 5 μg of RNA, cDNA was synthesized, specific primers were set with respect to alkaline phosphatase, the type I-α collagen, osteocalcin, and bone sialoprotein genes, PCR amplification was performed in the thermal cycler, and the amount of expression of the above genes was measured.

[4] = test system: maxillary alveolar bone of a rabbit; assay: Local subperiosteal injection at the maxillary alveolar bone of rabbits, pQCT and μCT analysis; format: in vivo
Procedure: FIG. 2 is a proliferation of the bone induced on the maxillary alveolar bone of a rabbit resulting from local administration of MPMBP (administration of a 1 mM or 10 mM solution every 4 days for 6 times). (pQCT: peripheral Quantitative Computerized Tomography image). A horizontal section in the vicinity of the cervical site of the maxillary molar teeth. Exp: A test side (side to which MPMBP was administered), cont: a control side (side to which 0.9% NaCl was administered). Arrows represent injected sites.
FIG. 3 is a proliferation of the bone induced on the maxillary alveolar bone of a rabbit resulting from local administration of MPMBP (administration of a 1 mM or 10 mM solution every 4 days for 6 times) (μCT image: microfocus Computerized Tomography image). A forehead cut of the midline region of the right and left maxillary first molars. exp: A test side (side to which MPMBP was administered). cont: A control side (side to which 0.9% NaCl was administered).
A total of 9 Japanese male rabbits with the average weight of 2.2 kg were used and they were divided into 3 groups of 3 rabbits each. Under the periosteum of the palatal alveolar bone between the teeth of the maxillary first molar and the maxillary second molar on the left side (experiment side) of the domestic rabbits in each group, 50 μl of a 0.1, 1.0, or 10 mM MPMBP solution was injected every 4 days for 6 times (all performed under anesthesia using Nembutal). To the same sites on the opposite side (the right side), 50 μl of a physiological saline solution (0.9% NaCl solution) was injected in the same manner, and was set to be a control. On the 4th day after the final injection, the animals were euthanized with excessive administration of Nembutal, and the maxillary bone was removed and fixed with a 10% neutral formalin solution (pH 7.4). With the alveolar bone in the vicinity of drug administration sites and the palatine bone as the region of interest, 3-dimensional analysis was performed using a pQCT (peripheral Quantitative Computerized Tomography; FIG. 2) and a μCT (microfocus Computerized Tomography; FIG. 3). […] This type of the osteogenesis promoting effect of MPMBP in the living body has not been reported with the existing bisphosphonate compound.

[5] = 0.1, 1 and 10 μM, culture up to 3 weeks (FIG. 5)
[6] = 1, 10 and 100 μM, cultured 6, 10 or 20 days (FIG. 4)
[7] = 50 μl of 1.0 mM or 10 mM solution under the periosteum every 4 days for 6 times, vs 0.9% NaCl on the opposite side

Q: `O=P(O)(O)C(NC1CCCCCC1)P(=O)(O)O` [incadronate] was tested. Which “ALP activity (per well)” value (MC3T3-E1 cells [1]; [5]) did it give?
A: the alkaline phosphatase activity is inhibited or the alkaline phosphatase activity is not affected; also recorded: the ALP activity was significantly reduced in high concentration

Q: For `O=P(O)(O)C(O)(Cn1ccnc1)P(=O)(O)O` [zoledronate, reference compound], which “ALP activity (per well)” value (MC3T3-E1 cells [1]; [5]) is on record?
A: the alkaline phosphatase activity is inhibited or the alkaline phosphatase activity is not affected; also recorded: the ALP activity was significantly reduced in high concentration

Q: And the “production of the type I collagen / bone matrix” value ([2]; 48 hours)?
A: inhibited production of the type I collagen

Q: And the “expression of alkaline phosphatase, type I-α collagen, osteocalcin and bone sialoprotein genes” value (MC3T3-E1 cells [3]; zoledronate 0.1, 0.5 or 2.00 μM, 3 days (FIG. 11))?
A: no significant change was caused to the amount of expression of these genes

Q: What about the “expression of alkaline phosphatase, type I-α collagen, osteocalcin and bone sialoprotein genes” value (MC3T3-E1 cells [3]; zoledronate 0.1, 0.5 or 2.00 μM, 3 days (FIG. 11), listed as Zoledronate) of the same molecule?
A: did not significantly affect gene expression of all of the above

Q: With `NCCC(O)(P(=O)(O)O)P(=O)(O)O` [pamidronate] as the molecule, how does the “ALP activity (per well)” value (MC3T3-E1 cells [1]; [5]) read?
A: the alkaline phosphatase activity is inhibited or the alkaline phosphatase activity is not affected; also recorded: no significant change was observed

Q: With `CSc1ccc(SC(P(=O)([O-])[O-])P(=O)(O)O)cc1.[Na+].[Na+]` [MPMBP, [4-(methylthio)phenylthio]-methanebisphosphonic acid.disodium salt] as the molecule, how does the “ALP activity (per well)” value (MC3T3-E1 cells [1]; [6]) read?
A: increase an alkaline phosphatase activity in a dose-dependent manner and with time; also recorded: increased the ALP activity in a dose-dependent manner and with time

Q: And the “bone resorption resulting from LPS, size of the resorption cavity” value ([2]; 48 hours, LPS, vs control bone (FIG. 7))?
A: the bone resorption was inhibited resulting from LPS and the size of the resorption cavity that was formed from LPS was significantly smaller; also recorded: the bone resorption was inhibited resulting from LPS and the size of the resorption cavity that was formed by LPS was significantly small

Q: What about the “production of the bone matrix (type I collagen, Alexa Fluor-488)” value ([2]; 48 hours, presence or absence of LPS, vs control bone (FIG. 7)) of the same molecule?
A: production of the bone matrix (sites in green color) was promoted significantly; also recorded: production of the bone matrix (sites in green color) significantly increased

Q: And the “thickness of the bone mineral (alizarin red)” value ([2]; 48 hours, vs control bone (FIG. 7))?
A: the thickness of the bone mineral (sites in red color) was thick

Q: And the “production of the bone matrix (type I collagen)” value ([2]; MPMBP 25 μM, 48 hours, DMEM, presence or absence of LPS 10 μg/ml, vs control bone (FIG. 6))?
A: production of the bone matrix (sites in red color) was promoted significantly; also recorded: production of the bone matrix (type I collagen: sites in red) significantly increased

Q: And the “bone resorption resulting from LPS, size of the resorption cavity” value ([2]; MPMBP 25 μM, 48 hours, LPS 10 μg/ml, vs control bone (FIG. 6))?
A: the bone resorption was inhibited resulting from LPS and the size of a resorption cavity that was formed from LPS was significantly smaller; also recorded: the bone resorption was inhibited resulting from LPS and the size of the resorption cavity that was formed by LPS was significantly small

Q: And the “production of collagen (type I collagen fibers)” value ([2]; 48 hours)?
A: a large amount of thick collagen fibers was produced in a fascicular shape and the bone surface was densely covered

Q: And the “concentration indicating the same level of the inhibitory action of the bone resorption in the bone organ culture system” value ([2]; bone organ culture system)?
A: 100 µM

Q: What about the “production of the type I collagen / bone matrix” value ([2]; 48 hours) of the same molecule?
A: significantly promoted production of the bone matrix; also recorded: significantly increased production of the bone matrix

Q: And the “expression of alkaline phosphatase, type I-α collagen, osteocalcin and bone sialoprotein genes” value (MC3T3-E1 cells [3]; MPMBP 100 μM (1, 10, 100 μM tested), 3 days (72 hours) (FIG. 10))?
A: promoted gene expression of all of the above; also recorded: increased significantly in all genes

Q: What about the “bone changes (osteogenesis promoting effect) in the 0.1 mM group” value ([4]; 0.1 mM, 50 μl every 4 days for 6 times) of the same molecule?
A: the effect was not clear

Q: What about the “bone changes, 10 mM group compared to 1.0 mM group” value ([4]; 10 mM vs 1.0 mM, 50 μl every 4 days for 6 times) of the same molecule?
A: stronger for the 10 mM administration group

Q: And the “bone addition to the palatal side of the alveolar bone (proliferation of the alveolar bone), pQCT” value [4, 7]?
A: a proliferation of the alveolar bone is observed; also recorded: bone addition to the palatal side of the alveolar bones

Q: What about the “thickness of the palatine bone from the alveolar site to the middle of the palate, μCT” value [4, 7] of the same molecule?
A: the thickness of the palatine bone is increasing; also recorded: the thickness of the palatine bone increased

Q: With `NCCCC(O)(P(=O)(O)O)P(=O)(O)O` [alendronate, reference compound] as the molecule, how does the “production of collagen (type I collagen fibers)” value ([2]; 48 hours) read?
A: production of the collagen increased were observed; however, the degree was small, compared to MPMBP

Q: How did the “ALP activity (per well)” value (MC3T3-E1 cells [1]; [6]) turn out when `O=P(O)(O)C(Cl)(Cl)P(=O)(O)O` [clodronate] was run?
A: increase an alkaline phosphatase activity in a dose-dependent manner and with time; also recorded: increased the ALP activity
